What was measured:
[1] = test system: MDR1; assay: Apparent permeability in pig LLC-PK1 cells transfected with MDR1; type: ADME, cell-based, Sus scrofa
[2] = Fraction unbound in human plasma at 2.5 uM by equilibrium dialysis; type: ADME, cell-free
[3] = molecular target: T1, Protein O-GlcNAcase (Homo sapiens, UniProt O60502); assay: Inhibition of recombinant human OGA
T1 sequence (O60502 whole entry): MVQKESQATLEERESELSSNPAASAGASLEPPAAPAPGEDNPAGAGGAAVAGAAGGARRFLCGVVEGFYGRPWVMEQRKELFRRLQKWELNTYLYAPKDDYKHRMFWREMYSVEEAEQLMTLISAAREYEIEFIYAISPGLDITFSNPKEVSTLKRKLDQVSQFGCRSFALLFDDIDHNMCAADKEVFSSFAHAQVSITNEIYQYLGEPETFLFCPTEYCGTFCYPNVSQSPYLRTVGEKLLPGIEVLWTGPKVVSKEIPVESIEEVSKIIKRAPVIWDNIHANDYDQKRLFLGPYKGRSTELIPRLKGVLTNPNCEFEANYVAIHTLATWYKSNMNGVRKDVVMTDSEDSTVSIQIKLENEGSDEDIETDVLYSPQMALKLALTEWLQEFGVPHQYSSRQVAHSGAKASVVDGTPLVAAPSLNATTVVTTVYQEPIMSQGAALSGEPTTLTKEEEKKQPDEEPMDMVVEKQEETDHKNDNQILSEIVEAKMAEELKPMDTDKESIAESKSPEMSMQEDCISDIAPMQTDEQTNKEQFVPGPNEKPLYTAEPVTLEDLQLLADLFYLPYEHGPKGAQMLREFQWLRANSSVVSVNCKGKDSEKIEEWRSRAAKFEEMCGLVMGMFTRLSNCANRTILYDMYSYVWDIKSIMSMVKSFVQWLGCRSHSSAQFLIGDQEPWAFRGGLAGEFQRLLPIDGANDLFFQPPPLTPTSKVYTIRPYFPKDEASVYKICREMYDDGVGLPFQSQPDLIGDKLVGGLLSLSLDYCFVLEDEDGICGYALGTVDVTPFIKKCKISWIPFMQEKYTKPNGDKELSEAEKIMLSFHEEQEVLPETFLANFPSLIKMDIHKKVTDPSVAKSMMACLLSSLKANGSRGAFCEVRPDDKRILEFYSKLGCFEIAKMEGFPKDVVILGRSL

[4] = molecular target: T2, Protein O-GlcNAcase (Rattus norvegicus, UniProt Q8VIJ5); assay: Inhibition of OGA in rat PC12 cells assessed as OGlcNAcylated protein level incubated for 24 hrs by ELISA; type: cell-based
T2 sequence (Q8VIJ5 whole entry): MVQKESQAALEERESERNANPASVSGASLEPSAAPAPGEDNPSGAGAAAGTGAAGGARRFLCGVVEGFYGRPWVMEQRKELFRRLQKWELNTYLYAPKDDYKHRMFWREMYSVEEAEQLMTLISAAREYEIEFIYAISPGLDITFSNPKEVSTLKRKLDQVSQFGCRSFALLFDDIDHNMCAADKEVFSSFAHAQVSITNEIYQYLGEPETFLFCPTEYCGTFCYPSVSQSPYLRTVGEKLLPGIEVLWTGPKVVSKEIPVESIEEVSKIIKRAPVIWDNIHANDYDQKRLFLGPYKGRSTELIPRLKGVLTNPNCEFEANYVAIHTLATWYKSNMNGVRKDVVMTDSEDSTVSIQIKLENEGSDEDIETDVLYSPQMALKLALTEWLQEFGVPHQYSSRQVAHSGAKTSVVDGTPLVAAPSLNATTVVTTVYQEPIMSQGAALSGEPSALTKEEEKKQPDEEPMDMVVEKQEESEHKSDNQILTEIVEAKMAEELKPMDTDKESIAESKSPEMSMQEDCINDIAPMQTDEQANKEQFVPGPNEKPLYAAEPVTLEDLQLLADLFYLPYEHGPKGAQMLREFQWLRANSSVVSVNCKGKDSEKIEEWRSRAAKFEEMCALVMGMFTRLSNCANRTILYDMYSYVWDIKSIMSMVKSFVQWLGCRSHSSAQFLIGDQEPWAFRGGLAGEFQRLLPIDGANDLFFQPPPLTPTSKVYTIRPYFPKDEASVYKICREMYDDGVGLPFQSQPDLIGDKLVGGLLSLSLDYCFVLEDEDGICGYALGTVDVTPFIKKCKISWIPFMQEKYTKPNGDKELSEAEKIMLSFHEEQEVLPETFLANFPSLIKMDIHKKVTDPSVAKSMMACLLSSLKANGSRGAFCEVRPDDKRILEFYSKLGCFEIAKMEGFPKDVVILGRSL

[5] = molecular target: T3, Beta-hexosaminidase subunit beta (Homo sapiens, UniProt P07686); assay: Inhibition of human beta hexosaminidase assessed as inhibitory constant using 4-methylumbelliferyl N-acetyl-beta-D-glucosaminide dihydrate as substrate measured every 60 sec for 45 mins by fluorescence spectrophotometry
T3 sequence (P07686 whole entry): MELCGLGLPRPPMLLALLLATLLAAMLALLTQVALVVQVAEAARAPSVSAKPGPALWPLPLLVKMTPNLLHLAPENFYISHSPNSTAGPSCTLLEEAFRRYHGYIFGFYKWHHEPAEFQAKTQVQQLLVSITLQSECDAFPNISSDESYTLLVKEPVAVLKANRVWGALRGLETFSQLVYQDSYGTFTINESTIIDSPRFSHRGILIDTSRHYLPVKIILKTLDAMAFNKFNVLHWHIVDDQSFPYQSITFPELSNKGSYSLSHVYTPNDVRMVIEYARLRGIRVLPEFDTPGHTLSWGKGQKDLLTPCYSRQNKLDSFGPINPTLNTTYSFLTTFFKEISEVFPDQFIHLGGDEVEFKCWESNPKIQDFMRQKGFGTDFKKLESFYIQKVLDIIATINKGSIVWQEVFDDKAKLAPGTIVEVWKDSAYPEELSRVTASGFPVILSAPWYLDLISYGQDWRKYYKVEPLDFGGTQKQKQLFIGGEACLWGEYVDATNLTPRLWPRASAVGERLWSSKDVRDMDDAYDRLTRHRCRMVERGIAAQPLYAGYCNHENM

[6] = Fraction unbound in Wistar Han rat plasma at 2.5 uM by equilibrium dialysis; type: ADME, cell-free
[7] = AUCN in Wistar Han rat at 3 mg/kg, po; type: ADME, organism-based; details: in vivo
[8] = Clearance in Wistar Han rat at 2 mg/kg, iv; type: ADME, organism-based; details: in vivo
[9] = Half life in Wistar Han rat at 2 mg/kg, iv; type: ADME, organism-based; details: in vivo
[10] = Volume of distribution at steady state in Wistar Han rat at 2 mg/kg, iv or 3 mg/kg, po; type: ADME, organism-based; details: in vivo, read-out: Vdss
[11] = Oral bioavailability in Wistar Han rat at 3 mg/kg; type: ADME, organism-based; details: in vivo
[12] = test system: Rattus norvegicus; assay: Elevation of O-protein in rat brain at 3 mg/kg, po measured after 8 hrs relative to control; type: functional
[13] = Drug uptake in rat brain at 3 mg/kg, po measured after 8 hrs; type: ADME, organism-based; details: in vivo
[14] = Ratio of drug uptake in rat brain to plasma at 3 mg/kg, po measured after 8 hrs; type: ADME, organism-based; details: read-out: BPR
[15] = molecular target: Voltage-gated inwardly rectifying potassium channel KCNH2 (Homo sapiens, UniProt Q12809); assay: Displacement of MK-0499 from human ERG
[16] = molecular target: Sodium channel protein type 5 subunit alpha (Homo sapiens, UniProt Q14524); assay: Inhibition of Nav1.5 (unknown origin)
[17] = molecular target: Voltage-dependent L-type calcium channel subunit alpha-1C (Homo sapiens, UniProt Q13936); assay: Inhibition of Cav1.2 (unknown origin)
[18] = molecular target: Cytochrome P450 3A4 (Homo sapiens, UniProt P08684); assay: Inhibition of CYP3A4 (unknown origin); type: ADME
[19] = molecular target: Cytochrome P450 2D6 (Homo sapiens, UniProt P10635); assay: Inhibition of CYP2D6 (unknown origin); type: ADME
[20] = molecular target: Cytochrome P450 2C9 (Homo sapiens, UniProt P11712); assay: Inhibition of CYP2C9 (unknown origin); type: ADME
[21] = molecular target: T4, Nuclear receptor subfamily 1 group I member 2 (Homo sapiens, UniProt O75469); assay: Activation of PXR (unknown origin) assessed as CYP3A4 induction
T4 sequence (O75469 whole entry): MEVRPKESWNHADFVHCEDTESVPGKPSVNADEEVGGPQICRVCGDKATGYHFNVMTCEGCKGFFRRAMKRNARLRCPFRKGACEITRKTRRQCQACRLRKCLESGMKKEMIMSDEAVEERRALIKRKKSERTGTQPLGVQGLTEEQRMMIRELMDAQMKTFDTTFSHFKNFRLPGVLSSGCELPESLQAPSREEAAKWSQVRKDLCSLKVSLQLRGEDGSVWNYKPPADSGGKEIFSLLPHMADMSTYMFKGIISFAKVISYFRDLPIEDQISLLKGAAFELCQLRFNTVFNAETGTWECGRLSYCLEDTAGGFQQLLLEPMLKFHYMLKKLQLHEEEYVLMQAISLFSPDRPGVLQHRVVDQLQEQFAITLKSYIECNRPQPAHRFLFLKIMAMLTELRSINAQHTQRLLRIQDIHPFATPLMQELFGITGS

[22] = Oral bioavailability in Wistar Han rat at 10 mg/kg; type: ADME, organism-based; details: in vivo
[23] = AUCN in Wistar Han rat at 10 mg/kg, po; type: ADME, organism-based; details: in vivo
[24] = Volume of distribution at steady state in Wistar Han rat at 2 mg/kg, iv or 10 mg/kg, po; type: ADME, organism-based; details: in vivo, read-out: Vdss

Sequence of Sodium channel protein type 5 subunit alpha (Q14524 whole entry): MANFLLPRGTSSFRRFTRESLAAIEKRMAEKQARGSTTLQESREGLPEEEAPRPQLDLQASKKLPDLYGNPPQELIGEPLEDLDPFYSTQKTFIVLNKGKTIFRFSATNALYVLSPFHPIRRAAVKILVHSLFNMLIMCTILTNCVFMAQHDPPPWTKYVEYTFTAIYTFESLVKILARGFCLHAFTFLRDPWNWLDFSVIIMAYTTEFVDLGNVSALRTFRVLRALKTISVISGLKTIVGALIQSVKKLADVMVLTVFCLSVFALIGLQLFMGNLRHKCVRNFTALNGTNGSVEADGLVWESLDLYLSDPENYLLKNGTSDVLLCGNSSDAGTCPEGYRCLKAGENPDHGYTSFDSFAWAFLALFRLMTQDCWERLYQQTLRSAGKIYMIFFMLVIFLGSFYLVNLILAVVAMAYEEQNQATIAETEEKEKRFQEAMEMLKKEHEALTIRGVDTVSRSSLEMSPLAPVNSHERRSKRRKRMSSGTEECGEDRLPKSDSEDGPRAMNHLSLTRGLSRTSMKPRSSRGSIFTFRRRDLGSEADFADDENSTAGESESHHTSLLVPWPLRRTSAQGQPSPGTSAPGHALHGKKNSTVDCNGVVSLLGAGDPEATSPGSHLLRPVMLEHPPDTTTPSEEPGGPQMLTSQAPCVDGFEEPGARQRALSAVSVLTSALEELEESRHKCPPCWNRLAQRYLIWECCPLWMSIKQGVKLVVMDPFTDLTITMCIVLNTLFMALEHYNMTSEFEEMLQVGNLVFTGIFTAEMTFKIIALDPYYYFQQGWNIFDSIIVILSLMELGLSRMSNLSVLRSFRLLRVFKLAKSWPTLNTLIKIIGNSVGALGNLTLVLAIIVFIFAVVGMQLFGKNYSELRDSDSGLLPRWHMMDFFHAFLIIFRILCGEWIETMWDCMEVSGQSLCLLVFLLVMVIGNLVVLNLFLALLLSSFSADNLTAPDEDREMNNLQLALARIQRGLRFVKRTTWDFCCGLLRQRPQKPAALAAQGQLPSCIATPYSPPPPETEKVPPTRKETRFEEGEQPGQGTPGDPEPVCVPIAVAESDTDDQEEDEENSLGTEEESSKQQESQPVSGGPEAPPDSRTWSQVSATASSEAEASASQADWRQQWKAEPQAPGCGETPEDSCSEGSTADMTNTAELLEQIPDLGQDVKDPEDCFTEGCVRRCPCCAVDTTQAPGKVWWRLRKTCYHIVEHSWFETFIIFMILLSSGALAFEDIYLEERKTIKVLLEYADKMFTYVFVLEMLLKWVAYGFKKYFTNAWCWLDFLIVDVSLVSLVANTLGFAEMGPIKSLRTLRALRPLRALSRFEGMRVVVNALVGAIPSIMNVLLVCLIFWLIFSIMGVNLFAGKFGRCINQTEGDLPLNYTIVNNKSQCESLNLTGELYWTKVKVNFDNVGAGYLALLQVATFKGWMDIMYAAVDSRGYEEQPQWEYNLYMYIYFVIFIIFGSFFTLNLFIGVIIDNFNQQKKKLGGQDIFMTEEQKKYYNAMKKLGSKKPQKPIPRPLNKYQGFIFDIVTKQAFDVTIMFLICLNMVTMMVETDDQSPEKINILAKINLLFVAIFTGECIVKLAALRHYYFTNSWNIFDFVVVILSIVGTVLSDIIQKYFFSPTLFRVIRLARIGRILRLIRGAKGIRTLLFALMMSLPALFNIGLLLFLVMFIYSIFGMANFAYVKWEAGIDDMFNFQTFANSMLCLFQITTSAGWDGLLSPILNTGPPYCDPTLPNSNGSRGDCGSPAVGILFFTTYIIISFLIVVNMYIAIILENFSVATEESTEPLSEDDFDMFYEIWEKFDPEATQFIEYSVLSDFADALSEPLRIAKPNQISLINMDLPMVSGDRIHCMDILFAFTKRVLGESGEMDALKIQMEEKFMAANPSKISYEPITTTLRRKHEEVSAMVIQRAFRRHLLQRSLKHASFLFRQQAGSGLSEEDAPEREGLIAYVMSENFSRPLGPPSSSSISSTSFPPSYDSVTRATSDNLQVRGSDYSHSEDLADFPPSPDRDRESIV
Sequence of Cytochrome P450 2D6 (P10635 whole entry): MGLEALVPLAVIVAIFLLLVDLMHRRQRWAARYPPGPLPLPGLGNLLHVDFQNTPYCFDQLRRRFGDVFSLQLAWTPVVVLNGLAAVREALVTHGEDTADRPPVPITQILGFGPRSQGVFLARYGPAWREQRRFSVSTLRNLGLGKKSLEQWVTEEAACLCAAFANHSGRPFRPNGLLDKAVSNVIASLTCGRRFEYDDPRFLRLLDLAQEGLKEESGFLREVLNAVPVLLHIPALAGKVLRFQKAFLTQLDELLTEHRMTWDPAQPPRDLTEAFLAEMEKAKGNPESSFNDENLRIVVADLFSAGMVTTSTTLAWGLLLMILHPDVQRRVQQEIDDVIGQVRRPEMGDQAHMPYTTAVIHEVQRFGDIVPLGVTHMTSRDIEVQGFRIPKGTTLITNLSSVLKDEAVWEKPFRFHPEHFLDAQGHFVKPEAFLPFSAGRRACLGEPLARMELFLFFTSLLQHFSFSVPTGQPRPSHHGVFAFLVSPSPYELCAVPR
Sequence of Voltage-gated inwardly rectifying potassium channel KCNH2 (Q12809 whole entry): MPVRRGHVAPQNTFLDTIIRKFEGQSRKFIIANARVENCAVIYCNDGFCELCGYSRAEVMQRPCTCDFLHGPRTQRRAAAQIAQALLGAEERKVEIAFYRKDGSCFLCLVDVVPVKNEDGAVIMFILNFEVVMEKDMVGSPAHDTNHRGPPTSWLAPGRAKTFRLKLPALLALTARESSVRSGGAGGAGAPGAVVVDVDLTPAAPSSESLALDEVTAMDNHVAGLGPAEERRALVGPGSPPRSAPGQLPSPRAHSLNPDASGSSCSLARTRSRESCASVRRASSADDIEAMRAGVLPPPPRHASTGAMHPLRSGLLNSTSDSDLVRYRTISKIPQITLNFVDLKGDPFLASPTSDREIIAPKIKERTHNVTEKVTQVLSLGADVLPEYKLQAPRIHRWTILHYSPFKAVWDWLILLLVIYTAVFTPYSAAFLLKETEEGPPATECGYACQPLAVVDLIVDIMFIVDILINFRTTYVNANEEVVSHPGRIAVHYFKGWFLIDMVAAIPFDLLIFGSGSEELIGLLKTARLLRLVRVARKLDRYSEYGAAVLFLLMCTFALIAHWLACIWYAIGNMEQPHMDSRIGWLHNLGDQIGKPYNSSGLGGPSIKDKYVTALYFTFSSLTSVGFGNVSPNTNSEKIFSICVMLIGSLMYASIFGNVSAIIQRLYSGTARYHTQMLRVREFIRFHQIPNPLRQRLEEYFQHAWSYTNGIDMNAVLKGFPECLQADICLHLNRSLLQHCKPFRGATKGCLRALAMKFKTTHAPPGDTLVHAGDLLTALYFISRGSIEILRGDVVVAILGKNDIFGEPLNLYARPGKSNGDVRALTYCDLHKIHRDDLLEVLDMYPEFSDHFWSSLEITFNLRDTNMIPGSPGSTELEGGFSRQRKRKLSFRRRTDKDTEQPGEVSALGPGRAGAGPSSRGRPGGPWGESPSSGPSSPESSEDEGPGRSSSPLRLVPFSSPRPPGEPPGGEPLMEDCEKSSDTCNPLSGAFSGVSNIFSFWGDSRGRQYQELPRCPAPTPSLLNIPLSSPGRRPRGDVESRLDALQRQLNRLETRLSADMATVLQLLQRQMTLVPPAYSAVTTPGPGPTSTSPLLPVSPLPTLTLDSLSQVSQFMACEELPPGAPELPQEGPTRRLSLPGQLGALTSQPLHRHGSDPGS
Sequence of Cytochrome P450 3A4 (P08684 whole entry): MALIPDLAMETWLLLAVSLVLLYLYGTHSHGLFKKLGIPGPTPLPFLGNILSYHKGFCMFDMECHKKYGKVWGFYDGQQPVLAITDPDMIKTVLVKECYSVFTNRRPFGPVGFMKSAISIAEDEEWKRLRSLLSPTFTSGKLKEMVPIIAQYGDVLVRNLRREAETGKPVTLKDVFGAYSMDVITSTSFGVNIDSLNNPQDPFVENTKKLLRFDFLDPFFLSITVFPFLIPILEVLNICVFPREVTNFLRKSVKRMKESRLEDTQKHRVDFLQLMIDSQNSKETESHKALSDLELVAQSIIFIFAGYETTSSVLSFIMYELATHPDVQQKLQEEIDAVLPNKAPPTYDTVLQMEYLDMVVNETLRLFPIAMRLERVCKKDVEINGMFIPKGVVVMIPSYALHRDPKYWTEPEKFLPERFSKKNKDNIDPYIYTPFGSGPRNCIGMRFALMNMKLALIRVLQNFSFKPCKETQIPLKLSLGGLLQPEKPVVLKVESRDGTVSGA
Sequence of Cytochrome P450 2C9 (P11712 whole entry): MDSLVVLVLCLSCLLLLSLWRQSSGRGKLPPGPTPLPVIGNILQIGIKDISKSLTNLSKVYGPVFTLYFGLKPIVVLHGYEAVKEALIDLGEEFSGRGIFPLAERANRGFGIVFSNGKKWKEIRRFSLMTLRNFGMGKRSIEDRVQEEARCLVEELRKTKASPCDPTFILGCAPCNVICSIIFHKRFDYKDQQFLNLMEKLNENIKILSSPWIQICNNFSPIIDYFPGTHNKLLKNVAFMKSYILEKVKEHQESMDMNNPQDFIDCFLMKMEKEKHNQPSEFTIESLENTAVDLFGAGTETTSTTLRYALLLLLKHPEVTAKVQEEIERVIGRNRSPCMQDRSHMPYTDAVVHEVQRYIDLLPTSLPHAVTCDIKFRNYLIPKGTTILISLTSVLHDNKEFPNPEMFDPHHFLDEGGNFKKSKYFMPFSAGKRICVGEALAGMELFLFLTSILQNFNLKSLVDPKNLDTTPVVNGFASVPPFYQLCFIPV

Q: For `CNC1=N[C@@H]2[C@@H](O)[C@H](O)[C@@H](C(F)F)O[C@@H]2S1`, which Papp [1] is on record?
A: 5.7 ×10⁻⁶ cm/s

Q: What about the fraction unbound at 2.5 µM [2] of the same compound?
A: 0.77

Q: What about the Ki [3] of the same compound?
A: 0.00036 µM

Q: And the EC50 [4]?
A: 0.00171 µM

Q: And the Ki [5]?
A: 1.3 µM

Q: And the fraction unbound at 2.5 µM [6]?
A: 0.83

Q: And the AUC/dose [7]?
A: 2.54 µM·kg·h/mg

Q: What about the clearance [8] of the same compound?
A: 27.1 mL/min/kg

Q: And the half-life [9]?
A: 1.48 h

Q: And the Vd [10]?
A: 1.72 L/kg

Q: And the bioavailability [11]?
A: 93.8%

Q: And the “fold change (FC)” value [12]?
A: 2

Q: What about the Drug uptake [13] of the same compound?
A: 0.133 nmol/g

Q: And the Kp at 8 h [14]?
A: 1.33

Q: For `CCNC1=N[C@@H]2[C@@H](O)[C@H](O)[C@@H](C)O[C@@H]2S1`, which Ki [3] is on record?
A: 0.069 µM

Q: What about the IC50 [15] of the same compound?
A: > 30 µM

Q: What about the IC50 [16] of the same compound?
A: > 30 µM

Q: What about the IC50 [17] of the same compound?
A: > 30 µM

Q: And the IC50 [18]?
A: > 50 µM

Q: What about the IC50 [19] of the same compound?
A: > 50 µM

Q: What about the IC50 [20] of the same compound?
A: > 50 µM

Q: What about the EC50 [21] of the same compound?
A: > 30 µM

Q: With `CCCNC1=N[C@@H]2[C@@H](O)[C@H](O)[C@@H](CF)O[C@@H]2S1` as the compound, how does the Papp [1] read?
A: 17 ×10⁻⁶ cm/s

Q: And the Ki [3]?
A: 0.014 µM

Q: What about the EC50 [4] of the same compound?
A: 0.119 µM

Q: And the Ki [5]?
A: > 10 µM

Q: And the bioavailability [22]?
A: 75.3%

Q: Which Ki [3] does the source give for `OC[C@H]1O[C@@H]2SC(N3CCC3)=N[C@@H]2[C@@H](O)[C@@H]1O` here?
A: 0.0033 µM

Q: What about the EC50 [4] of the same compound?
A: 0.028 µM

Q: What about the Ki [5] of the same compound?
A: > 10 µM

Q: And the AUC/dose [23]?
A: 1.15 µM·kg·h/mg

Q: What about the clearance [8] of the same compound?
A: 53.6 mL/min/kg

Q: And the half-life [9]?
A: 1.63 h

Q: And the Vd [24]?
A: 2.88 L/kg

Q: And the bioavailability [22]?
A: 96%

Q: Which results are given for `CCNC1=N[C@H]2[C@H](O[C@H](CO)C(F)[C@@H]2O)S1` (some centres not stated)?
A: Ki [3]: > 3 µM; Ki [5]: > 10 µM; IC50 [15]: > 30 µM; IC50 [16]: > 30 µM; IC50 [17]: > 30 µM; IC50 [18]: > 50 µM; IC50 [19]: > 50 µM; IC50 [20]: > 50 µM; EC50 [21]: > 30 µM

Q: What does the source list for `CCNC1=N[C@@H]2C[C@H](O)[C@@H](CO)O[C@@H]2S1`?
A: Papp [1]: 2.6 ×10⁻⁶ cm/s; Ki [5]: > 10 µM; IC50 [15]: > 30 µM; IC50 [16]: > 30 µM; IC50 [17]: > 30 µM; IC50 [18]: > 50 µM; IC50 [19]: > 50 µM; IC50 [20]: > 50 µM; EC50 [21]: > 30 µM

Q: Which Ki [3] does the source give for `CCNC1=N[C@@H]2[C@@H](OC)[C@H](O)[C@@H](CO)O[C@@H]2S1` here?
A: 0.27 µM

Q: What about the Ki [5] of the same compound?
A: > 10 µM

Q: And the IC50 [15]?
A: > 30 µM

Q: And the IC50 [16]?
A: > 30 µM

Q: And the IC50 [17]?
A: > 30 µM

Q: What about the IC50 [18] of the same compound?
A: > 50 µM

Q: What about the IC50 [19] of the same compound?
A: > 50 µM

Q: And the IC50 [20]?
A: > 50 µM

Q: What about the EC50 [21] of the same compound?
A: > 30 µM
